Our source for the IC50 values is patent publication US20240207300A1, “COMBINATION THERAPIES INCLUDING MYT1 INHIBITORS” (Repare Therapeutics Inc., priority 2021, published 2024).

A word on the IC50: it is the concentration at which inhibition is half-maximal.

Sequence of recombinant human Myt1 (Q99640 whole entry): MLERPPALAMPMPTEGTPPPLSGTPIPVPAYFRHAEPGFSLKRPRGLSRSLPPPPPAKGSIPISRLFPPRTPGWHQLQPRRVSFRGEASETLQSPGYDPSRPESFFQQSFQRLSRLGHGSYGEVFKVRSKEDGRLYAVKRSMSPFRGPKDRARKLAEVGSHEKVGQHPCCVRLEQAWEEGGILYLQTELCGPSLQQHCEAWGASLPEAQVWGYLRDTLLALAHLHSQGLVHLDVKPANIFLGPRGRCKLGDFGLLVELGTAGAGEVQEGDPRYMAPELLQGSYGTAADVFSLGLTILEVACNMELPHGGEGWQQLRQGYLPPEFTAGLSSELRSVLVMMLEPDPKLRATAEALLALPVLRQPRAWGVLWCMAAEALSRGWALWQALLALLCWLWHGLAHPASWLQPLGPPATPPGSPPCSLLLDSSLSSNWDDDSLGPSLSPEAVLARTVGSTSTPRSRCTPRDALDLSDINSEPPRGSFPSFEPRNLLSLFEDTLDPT

For the experiment, the target named is recombinant human Myt1 (Homo sapiens (Human), UniProt Q99640). As to the kind of experiment: Recombinant human Myt1 kinase ADP-Glo enzymatic assay. It counts as biochemical. The following applies: recombinant human Myt1 18 nM, ATP 10 μM. On the procedure:
Detection of Myt1 kinase activity utilized a recombinant human Myt1 kinase assay measuring the hydrolysis of ATP using a commercially available ADP-Glo Assay (ADP-Glo™ Kinase Assay from Promega, 10 000 assays, #V9102). […] After this, 5 μL of compounds (diluted in reaction buffer to 0.5% DMSO) was added to the microplate and the plate was spun briefly and incubated at 22° C. for 15 minutes. Ultra-Pure Adenosine Triphosphate (ATP) solution (ADP-Glo kit from Promega) was diluted in reaction buffer and 5 μL was added to the microplate, spun down briefly and incubated for 60 minutes at 30° C. […] After the 60-minute incubation, 15 μL of ADP-Glo reagent was added and the plate was spun briefly and sealed and incubated in the dark for 40 minutes at 22° C. […] Luminescence was read using the Envision (250 ms integration). The IC50 and the % max inhibition were calculated for each inhibitor compound tested.
(In general: ADP-Glo first removes unused ATP, then detects ADP through luciferase.)
Turning to `Cc1ccc(O)c(C)c1-n1c(N)c(C(N)=O)c2c(C)c(Cl)cnc21` [Compound 313], the IC50 is less than 0.01 µM.
Next, `Cc1ccc(O)c(C)c1-n1c(N)c(C(N)=O)c2c(Cl)c(Cl)cnc21` [Compound 316]: less than 0.01 µM.
The result for `Cc1ccc(O)c(C)c1-n1c(N)c(C(N)=O)c2cc(I)cnc21` [Compound 319] reads less than 0.01 µM; that for `Cc1ccc(O)c(Cl)c1-n1c(N)c(C(N)=O)c2cc(Cl)cnc21` [Compound 327], less than 0.01 µM; that for `Cc1ccc(O)c(C)c1-n1c(N)c(C(N)=O)c2cccnc21` [Compound 328], less than 0.01 µM.
